Experimental data as given in patent US9687522B2, “Methods of treating a subject afflicted with an autoimmune disease using predictive biomarkers of clinical response to glatiramer acetate therapy in multiple sclerosis” (TEVA PHARMACEUTICAL INDUSTRIES, LTD., priority 2010, dated 2017).

Assays:
[1] = test system: IL-18; assay: IL-18 by ELISA in ex-vivo PBMC supernatant of GA-treated MS patients; format: cell-based, human; conditions: both groups
Experimental: (§1) Approximately 60 cc of blood was obtained by venipuncture from each MS patient pre-treatment and at successive time points during treatment (3 months, 6 months, 9-12 months and 24 months). PBMC were purified using Ficoll-Hypaque gradients as described in the supplier's protocol (ICN Biomedicals Inc. Ohio, USA). Samples from collaborating centers were sent via overnight FedEx™ delivery at room temperature and processed immediately upon arrival.
2×10^5 PBMC/well were seeded in 96 well U-bottom micro titer plate in the absence of antigen (unstimulated condition) (US) or the presence of GA at 40 and 100 μg/ml (Teva Pharmaceutical Industries, Ltd., Israel), tetanus toxoid (TT 5 μg) obtained from UMASS (University of Mass, Worcester, Mass.). The latter was used as a control antigen. Supernatants were collected from cultured cells at days 1, 3 and 5 for various assays. After 5 days, 1 μCi ^3H-thymidine was added. […] Incorporated radioactivity was measured using a liquid Scintillation counter (Wallac MicroBeta Trilux, PerkinElmer, Boston, Mass.).
Interleukin-18 and caspase-1 levels were detected by human ELISA kits (Sandwich ELISA, Bender Nedaystems, USA). […] TGF-β, TNF-α, IL-4, IFN-γ, IL-17 and IL-10 levels were detected by human ELISA kits from ebioscience (San Diego Calif., 92121 USA). […] BDNF was detected by the Human BDNF ELISA kit from Chemicon International (catalog #CYT306). […]

[2] = test system: TNF-α; assay: Serum TNF-α by ELISA in GA-treated MS patients; format: in vivo, human
Source text: as §1
Interleukin-18 and caspase-1 levels were detected by human ELISA kits (Sandwich ELISA, Bender Nedaystems, USA). The sensitivity of the ELISA was 9.2 and 3.3 pg/ml for IL-18 and caspase-1 respectively. TGF-β, TNF-α, IL-4, IFN-γ, IL-17 and IL-10 levels were detected by human ELISA kits from ebioscience (San Diego Calif., 92121 USA). The sensitivity of the ebioscience kits were 60 pg/ml, 4 pg/ml, 2 pg/ml, 4 pg/ml, 4 pg/ml and 2 pg/ml respectively. BDNF was detected by the Human BDNF ELISA kit from Chemicon International (catalog #CYT306). The sensitivity of the BDNF ELISA was 7.8 pg/ml. […] Duplicates should be within 20% of the mean.

[3] = test system: IFN-γ; assay: IFN-γ ELISPOT in ex-vivo PBMC of GA-treated MS patients; format: cell-based, human; conditions: CD3/CD28 stimulated PBMC
Source text: as §1
(§2) Human IFN-γ (Th1 indicator) and IL-4 (Th2 indicator) were measured by the ELISPOT assay according to the manufacturer's protocol (BD Biosciences, San Diego, Calif., USA). Briefly, ELISPOT plates (PVDF plate, Millipore Corporation, MA, USA) were coated with 100 μl/well of 5 μg/ml capture antibody at 4° C. over night. The plates were then washed with PBS, and incubated with 200 μl/well of blocking solution (culture medium) for 2 hours. PBMC (2×10^5 cells/well for IFN-γ and 4×10^5 cells/well for IL-4 detection) and antigen (GA 40 and 100 μg/ml, TT 5 μg/ml, CD3Ab (2.5 μg/ml)/CD28 Ab (1 μg/ml)) was added and cultured overnight at 37° C. in a 5% CO2 incubator. Samples were tested in triplicate wells in response to each antigen. After overnight culture, the plates were washed twice with deionized water and three times with PBS, then incubated with 100 μl of 2.0 μg/ml biotinylated antibody for 2 hours at room temperature. The plates were then washed three times with wash buffer (0.05% Tween-20 PBS), and incubated with 100 μl of 1:100 dilution of Avidin-HRP for 1 hour at room temperature and washed three times with wash buffer. Finally 100 μl of AEC (3-amino-9-ethyl-carbazole) substrate was added and the reaction was stopped by washing plates with distilled water. Spots were counted and analyzed by CTL Analyzers LLC ELISPOT Plate Reader (Cleveland, Ohio, USA).

[4] = test system: IL-4; assay: IL-4 ELISPOT in ex-vivo PBMC of GA-treated MS patients; format: cell-based, human; design: unit not given here; conditions: CD3/CD28 stimulated PBMC
Source text: as §1, §2

[5] = test system: PBMC; assay: Lymphoproliferation assay (3H-thymidine) of ex-vivo PBMC; format: cell-based, human
Experimental: as §1
2×10^5 PBMC/well were seeded in 96 well U-bottom micro titer plate in the absence of antigen (unstimulated condition) (US) or the presence of GA at 40 and 100 μg/ml (Teva Pharmaceutical Industries, Ltd., Israel), tetanus toxoid (TT 5 μg) obtained from UMASS (University of Mass, Worcester, Mass.). The latter was used as a control antigen. Supernatants were collected from cultured cells at days 1, 3 and 5 for various assays. After 5 days, 1 μCi ^3H-thymidine was added. Cells were harvested 18 hours later using TOMTEC cell harvester (TOMTEC, Hamden Conn.). Incorporated radioactivity was measured using a liquid Scintillation counter (Wallac MicroBeta Trilux, PerkinElmer, Boston, Mass.).

Substance: Glatiramer acetate [GA]
- Supernatant IL-18 levels, change during GA treatment [1]: did not show any significant changes from baseline
- Serum TNF-α level ([2]; HR, 3 mo): 56 ± 5.0 pg/mL
- Serum TNF-α level ([2]; HR, 6 mo): 55 ± 7.0 pg/mL
- Serum TNF-α level ([2]; HR, 9-12 mo): 59 ± 5.18 pg/mL
- Serum TNF-α level ([2]; HR, 24 mo): 52.4 ± 9.64 pg/mL
- Serum TNF-α level ([2]; HR, Pre-Rx): 51 ± 3.0 pg/mL
- Serum TNF-α level ([2]; R, 3 mo): 47 ± 3.3 pg/mL
- Serum TNF-α level ([2]; R, 6 mo): 44 ± 4.6 pg/mL
- Serum TNF-α level ([2]; R, 9-12 mo): 54 ± 4.24 pg/mL
- Serum TNF-α level ([2]; R, 24 mo): 50.13 ± 1.5 pg/mL
- Serum TNF-α level ([2]; R, Pre-Rx): 57 ± 3.6 pg/mL
- Δ TNF-alpha 6 months, Median (Non-Responders) ([2]; serum, change from baseline): 1
- Δ TNF-alpha 6 months, Median (Responders) ([2]; serum, change from baseline): −14
- IFN-γ expression (ELISPOT, mean number of spots) ([3]; HR/NR, 3 mo): 206 ± 24
- IFN-γ expression (ELISPOT, mean number of spots) ([3]; HR/NR, 6 mo): 233 ± 26
- IFN-γ expression (ELISPOT, mean number of spots) ([3]; HR/NR, 9-12 mo): 218 ± 34
- IFN-γ expression (ELISPOT, mean number of spots) ([3]; HR/NR, 24 mo): 186 ± 35
- IFN-γ expression (ELISPOT, mean number of spots) ([3]; HR/NR, Baseline): 192 ± 26
- IFN-γ expression (ELISPOT, mean number of spots) ([3]; R, 3 mo): 182 ± 18
- IFN-γ expression (ELISPOT, mean number of spots) ([3]; R, 6 mo): 150 ± 15
- IFN-γ expression (ELISPOT, mean number of spots) ([3]; R, 9-12 mo): 110 ± 19
- IFN-γ expression (ELISPOT, mean number of spots) ([3]; R, 24 mo): 86 ± 14
- IFN-γ expression (ELISPOT, mean number of spots) ([3]; R, Baseline): 197 ± 28
- IL-4 expression (ELISPOT) ([4]; HR/NR, 3 mo): 14 ± 4
- IL-4 expression (ELISPOT) ([4]; HR/NR, 6 mo): 20 ± 6
- IL-4 expression (ELISPOT) ([4]; HR/NR, 9-12 mo): 23 ± 5
- IL-4 expression (ELISPOT) ([4]; HR/NR, 24 mo): 21 ± 3.5
- IL-4 expression (ELISPOT) ([4]; HR/NR, Baseline): 39 ± 9
- IL-4 expression (ELISPOT) ([4]; R, 3 mo): 44 ± 7.4
- IL-4 expression (ELISPOT) ([4]; R, 6 mo): 45 ± 7.3
- IL-4 expression (ELISPOT) ([4]; R, 9-12 mo): 39 ± 5.8
- IL-4 expression (ELISPOT) ([4]; R, 24 mo): 36 ± 7.2
- IL-4 expression (ELISPOT) ([4]; R, Baseline): 35 ± 5.9
- ex-vivo PBMC proliferative response over the course of GA treatment ([5]; antigens GA 40 and 100 μg/ml, TT 5 μg/ml, ΔCPM): initial increase in the proliferative response to GA and TT at 3 months during treatment followed by a decline after 6 months of treatment
- PBMC proliferation, GA-R versus GA-HR/NR ([5]; before or during treatment at 3, 6, 12 months or 2 years, p >0.05): no difference in PBMC proliferation to GA or TT between GA-R and GA-HR/NR
